Laboratory results as given in patent publication US9834542B2, “LXR modulators” (BRISTOL-MYERS SQUIBB COMPANY, priority 2013, dated 2017).

Biological target: T1, LXRβ (Homo sapiens, UniProt P55055)
T1 construct: Co-transfection expression plasmids, comprising full-length LXRα (pCMX-h LXRα[…] or LXRβ (pCMX-hLXRβ)); expressed in transfected cells; host or cells: CV-1 African Green Monkey Kidney Cells
T1 sequence (P55055 1-460): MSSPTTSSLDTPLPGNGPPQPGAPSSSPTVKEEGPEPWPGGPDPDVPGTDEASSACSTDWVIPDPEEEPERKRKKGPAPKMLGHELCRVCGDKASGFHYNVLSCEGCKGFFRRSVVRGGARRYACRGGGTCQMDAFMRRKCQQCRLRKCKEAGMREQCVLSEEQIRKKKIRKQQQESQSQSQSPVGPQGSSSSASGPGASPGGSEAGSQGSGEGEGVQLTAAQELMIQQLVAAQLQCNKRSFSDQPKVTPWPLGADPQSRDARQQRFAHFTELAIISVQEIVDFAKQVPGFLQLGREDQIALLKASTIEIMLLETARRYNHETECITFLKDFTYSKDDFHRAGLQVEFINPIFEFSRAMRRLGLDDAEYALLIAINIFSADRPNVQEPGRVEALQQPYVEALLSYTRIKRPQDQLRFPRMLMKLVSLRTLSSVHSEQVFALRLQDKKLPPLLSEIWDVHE
T1 sequence (P19793 1-462 partner): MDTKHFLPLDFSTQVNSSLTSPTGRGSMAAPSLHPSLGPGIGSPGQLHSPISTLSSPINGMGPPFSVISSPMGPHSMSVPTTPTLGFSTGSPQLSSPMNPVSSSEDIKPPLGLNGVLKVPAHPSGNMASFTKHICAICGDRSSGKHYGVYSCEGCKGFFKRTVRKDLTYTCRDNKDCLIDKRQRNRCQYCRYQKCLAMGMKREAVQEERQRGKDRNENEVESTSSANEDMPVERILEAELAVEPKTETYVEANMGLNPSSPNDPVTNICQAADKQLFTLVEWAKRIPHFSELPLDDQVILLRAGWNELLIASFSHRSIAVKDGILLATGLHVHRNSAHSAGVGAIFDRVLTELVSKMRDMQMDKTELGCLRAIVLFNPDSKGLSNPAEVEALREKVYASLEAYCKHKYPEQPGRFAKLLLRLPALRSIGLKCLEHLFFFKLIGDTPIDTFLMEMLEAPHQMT
Assay: Co-transfection assay (LXRE luciferase reporter), LXRβ
Assay type: cell-based
Set-up: % Efficacy: concentration or dose not given beside the values
Conditions: for EC50: CV-1 cells transfected with pCMX-hLXRβ and LXREx1-Tk-Luciferase, 20 hours incubation; for % Efficacy / Emax: LXRβ co-transfection, relative to high control 1-(2,4-difluorobenzyl)-2-oxo-6-(4-phenoxyphenyl)-4-(trifluoromethyl)-1,2-dihydropyridine-3-carbonitrile; for Emax: read-out: % Efficacy
Text: To measure the ability of compounds to activate or inhibit the transcriptional activity of LXR in a cell based assay, the co-transfection assay was used. It has been shown that LXR functions as a heterodimer with RXR. For the co-transfection assay, expression plasmids for LXRα and LXRβ are introduced separately via transient transfection into mammalian cells along with a luciferase reporter plasmid that contains one copy of a DNA sequence that is bound by LXR-RXR heterodimers (LXRE; Willy, P. et. al. 1995). LXRs heterodimerize with the endogenous RXR. Treatment of transfected cells with an LXR agonist increases the transcriptional activity of LXR, which is measured by an increase in luciferase activity.
CV-1 African Green Monkey Kidney Cells
Co-transfection expression plasmids, comprising full-length LXRα (pCMX-h LXRα[…] or LXRβ (pCMX-hLXRβ), reporter plasmid (LXREx1-Tk-Luciferase), and control (pCMX-Galactosidase expression vector) (Willey et al. Genes & Development 9 1033-1045 (1995)).
CV-1 cells were prepared 24 hours prior to the experiment by plating them into T-175 flasks or 500 cm^2 dishes in order to achieve 70-80% confluency on the day of the transfection. The number of cells to be transfected was determined by the number of plates to be screened. Each well of a 384 well plate requires 1.5×10^4 cells. DNA Transfection Reagent was prepared by mixing the required plasmid DNAs with a cationic lipid transfection reagent Transit 2020 (Mirus Bio) for CV1 by following the instructions provided with the reagents. Optimal DNA amounts were determined empirically per cell line and size of vessel to be transfected. For each T175 cm^2 flask a total of 59 ug for CV1 of DNA, 133 uL Transit2020 and 4.5 mL DMEM for CV1 was mixed and added. Cells were then incubated at least 5 hours at 37° C. to prepare screening cells.
Luciferase assay reagent (*Steady-Glo Luciferase Assay System by Promega, CAT#E2550) was prepared by combining before use:
Assay plates were prepared by dispensing 5 μL of compound per well of a 384 well plate to achieve final compound concentration of 10 μM and no more than 0.5% DMSO. Media was removed from the screening cells, the cells trypsinized, harvested cells by centrifugation, counted, and plated at a density of approximately 1.5×10^4 cells in the 384 well assay plate prepared above in a volume of about 95 uL. Assay plates containing both compounds and screening cells (100 μL in total volume) were incubated for 20 hours at 37° C.
After incubation with compounds, media was removed from the cells and luciferase assay reagent (50 μL/well) added. After ˜2 minutes at ambient temperature, the assay plates were read on a luminometer (PE Biosystems Northstar reader with on-board injectors, or Envision(Perkin Elmer) or equivalent).
The LXR/LXRE co-transfection assay can be used to establish the EC50/IC50 values for potency and percent activity or inhibition for efficacy. Efficacy defines the activity of a compound relative to a high control 1-(2,4-difluorobenzyl)-2-oxo-6-(4-phenoxyphenyl)-4-(trifluoromethyl)-1,2-dihydropyridine-3-carbonitrileor a low control (DMSO/vehicle). The dose response curves are generated from a 11 point curve with concentrations differing by ½ LOG units. Each point represents the average of 2 wells of data from duplicate 384 well plate.
The data from this assay is fitted to the following equation, from which the EC50 value may be solved: Y=Bottom+(Top−Bottom)/(1+10^((logEC50-X)*HillSlope)).
The EC50/IC50 is therefore defined as the concentration at which an agonist or antagonist elicits a response that is halfway between the Top (maximum) and Bottom (baseline) values. The EC50/IC50 values represented are the averages of at least 2 and normally 3 independent experiments. […]

EC50 [nM]	% Efficacy [%]	Emax [%]	Structure (SMILES)
838	33	–	Cc1nc(-c2cc(-c3cccc(S(C)(=O)=O)c3)ccc2-n2cc(C(C)O)nc2C)c(-c2ccc3c(c2)OC(F)(F)O3)o1 (single isomer, unassigned) [Example 372, 1-(1-(3-(5-(2,2-difluorobenzo[d][1,3]dioxol-5-yl)-2-methyloxazol-4-yl)-3′-(methylsulfonyl)-[1,1′-biphenyl]-4-yl)-2-methyl-1H-imidazol-4-yl) ethanol]
3000	77	–	Cc1nc(-c2cc(-c3cccc(S(C)(=O)=O)c3)ccc2-n2cc(C(C)O)nc2C)c(-c2ccc3c(c2)OC(F)(F)O3)o1 (single isomer, unassigned) [Example 514, 1-(1-(3-(5-(2,2-difluorobenzo[d][1,3]dioxol-5-yl)-2-methyloxazol-4-yl)-3′-(methylsulfonyl)-[1,1′-biphenyl]-4-yl)-2-methyl-1H-imidazol-4-yl)ethanol]
1210	19	–	Cc1nc(-c2cc(-c3cc(F)c(CO)c(S(C)(=O)=O)c3)ccc2-n2cc(C(C)O)nc2C)c(-c2ccc3c(c2)OC(F)(F)O3)o1 (single isomer, unassigned) [Example 515, 1-(1-(3-(5-(2,2-difluorobenzo[d][1,3]dioxol-5-yl)-2-methyloxazol-4-yl)-3′-fluoro-4′-(hydroxymethyl)-5′-(methylsulfonyl)-[1,1′-biphenyl]-4-yl)-2-methyl-1H-imidazol-4-yl)ethanol]
270	41	–	Cc1nc(-c2cc(-c3cc(F)c(CO)c(S(C)(=O)=O)c3)ccc2-n2cc(C(C)O)nc2C)c(-c2ccc3c(c2)OC(F)(F)O3)o1 (single isomer, unassigned) [Example 516, 1-(1-(3-(5-(2,2-difluorobenzo[d][1,3]dioxol-5-yl)-2-methyloxazol-4-yl)-3′-fluoro-4′-(hydroxymethyl)-5′-(methylsulfonyl)-[1,1′-biphenyl]-4-yl)-2-methyl-1H-imidazol-4-yl)ethanol]
40	–	116	Cc1nc(C(F)(F)F)c(Cl)n1-c1ccc(-c2cc(F)c(CO)c(S(C)(=O)=O)c2)cc1-n1nncc1-c1ccc(OC(F)(F)F)cc1 [Example 1, {4′-[5-chloro-2-methyl-4-(trifluoromethyl)-1H-imidazol-1-yl]-3-fluoro-5-(methylsulfonyl)-3′-(5-{4-[(trifluoromethyl)oxy]phenyl}-1H-1,2,3-triazol-1-yl)biphenyl-4-yl}methanol]
680	–	80	CS(=O)(=O)c1cccc(-c2ccc(-n3cc(C(F)(F)F)nc3Cl)c(-n3nncc3-c3ccc(Cl)cc3)c2)c1 [Example 2, 5-(4-chlorophenyl)-1-{4-[2-chloro-4-(trifluoromethyl)-1H-imidazol-1-yl]-3′-(methylsulfonyl)biphenyl-3-yl}-1H-1,2,3-triazole]
1950	–	74	Cc1nc(C(=O)NCC(F)(F)F)cn1-c1ccc(-c2cccc(S(C)(=O)=O)c2)cc1-n1nncc1-c1ccc(OC(F)(F)F)cc1 [Example 3, 2-methyl-1-[3′-(methylsulfonyl)-3-(5-{4-[(trifluoromethyl)oxy]phenyl}-1H-1,2,3-triazol-1-yl)biphenyl-4-yl]-N-(2,2,2-trifluoroethyl)-1H-imidazole-4-carboxamide]
559	–	89	Cc1nc(C(F)(F)F)cn1-c1ccc(-c2cccc(S(C)(=O)=O)c2)cc1-n1nncc1-c1ccc(CF)cc1 [Example 4, 5-[4-(fluoromethyl)phenyl]-1-{3′-(methylsulfonyl)-4-[2-methyl-4-(trifluoromethyl)-1H-imidazol-1-yl]biphenyl-3-yl}-1H-1,2,3-triazole]
258	–	91	Cc1nc(C(F)(F)F)cn1-c1ccc(-c2cccc(S(C)(=O)=O)c2)cc1-n1nncc1-c1ccc(C(F)F)cc1 [Example 5, 5-[4-(difluoromethyl)phenyl]-1-{3′-(methylsulfonyl)-4-[2-methyl-4-(trifluoromethyl)-1H-imidazol-1-yl]biphenyl-3-yl}-1H-1,2,3-triazole]
